The values below come from ChEMBL document CHEMBL5360534, “Synthetic α-glucosidase inhibitors as promising anti-diabetic agents: Recent developments and future challenges” (Eur J Med Chem, 2023).

The term IC50 denotes the point on the concentration scale where inhibition reaches its midpoint. Read a low IC50 as higher potency.

The first assay deals with Alpha-glucosidase (Saccharomyces cerevisiae S288c, UniProt P53341+P38158+P07265). The assay is described as follows: Inhibition of Saccharomyces cerevisiae alpha-glucosidase using p-nitrophenyl glucopyranoside as substrate preincubated for 10 mins followed by substrate addition and measured after 20 mins by spectrophotometric analysis. The assay is classed as protein assay.
`CCOC(=O)c1c(-c2ccccc2)nn2c1C=C(c1ccc(O)c(OC)c1)/C2=N/C1CCCCC1` gave an IC50 of 95 µM. Same read-out and setting: the value for `Nc1c(-c2ccccc2)nc2nc3cc(Cl)c(Cl)cc3n2c1-c1ccccc1` was 16.4 µM; that for `COc1cccc2cc(-c3nnc(SCc4cn(CC(=O)NCc5ccc(F)cc5)nn4)o3)oc12` was 40.7 µM.

Target in the next assay: not listed separately
In words: Inhibition of alpha-glucosidase (unknown origin). Further details: species or system Homo sapiens.
The compound `OC[C@H]1CC2C(N=NN2c2ccccc2)[C@@H](O)C1O` (some centres undefined) displayed an IC50 of 74 µM.

For `Nc1nnc(-c2cccc3cccc(O)c23)o1`, the IC50 came to 0.8 µM. `O=C1C(=O)N(Cc2cn(CN3C(=O)S/C(=C\c4ccco4)C3=O)nn2)c2ccccc21` had a half-inhibitory concentration (IC50) of 24.7 µM.

Compound `O=C(NNS(=O)(=O)c1ccccc1Cl)c1ccc(-c2nnc(-c3ccc([N+](=O)[O-])cc3)o2)cc1` displayed an IC50 of 1.1 µM. The same measure, in the same setting: the value for `O=[N+]([O-])c1ccc(S(=O)(=O)Oc2ccc(/C=C/c3nc4ccccc4nc3O)cc2)cc1` was 32 µM. In the case of `CCOC(=O)c1c(-c2ccc(/C=C3/SC(=O)NC3=O)cc2)c2ccccc2n1Cc1ccc(Cl)cc1`, the IC50 came to 3.6 µM. Same read-out and setting: the value for `Nc1ccc2c(-c3nc4ccc(Br)c(O)c4s3)cc(=O)oc2c1` was 6.32 µM; that for `CCOC(=O)c1c(-c2ccc(/C=C3/SC(=O)NC3=O)cc2)c2ccccc2n1Cc1ccccc1` was 5.3 µM; that for `COc1ccc(-n2c(SCC(=O)N/N=C/c3ccc(Cl)cc3)nc3ccccc3c2=O)cc1` was 610 µM. For the compound `COc1ccc(/C=N/n2c(COc3ccccc3)nnc2SCCO)cc1`, the IC50 was 1.49 µM. On the same count and under the same terms, the value for `CCn1cc(C(=O)OCc2ccccc2Br)c(=O)c2cc(F)c(N3CCN(Cc4ccccc4Br)CC3)nc21` was 45.8 µM.

In the case of `Cc1cc([N+](=O)[O-])ccc1-c1cnc(CC(C)C)s1`, the IC50 was 7.17 µM. Still for that read-out and setting: with `Oc1c(Cl)cc(Cl)cc1/C=N/c1nc(-c2ccc(-c3ccccc3)cc2)cs1` the figure was 0.5 µM. On to `CN(C)c1ccc(-c2ccc(/C=N/n3c(COc4ccccc4)nnc3SCCO)cc2)cc1`, for which the IC50 stood at 1.49 µM. With `O=C(CC(c1cc(Cl)ccc1Cl)c1c[nH]c2ccccc12)c1ccccc1` (centres undefined), half-maximal inhibition (IC50) was put at 4.3 µM.

The compound `Cc1ccoc1-c1cccc(/C=N/NC(=O)c2ccc(-c3cc(=O)c4cc(O)ccc4o3)cc2)c1` showed an IC50 of 1.02 µM. On the same count and under the same terms, the value for `CCOC(=O)c1c(-c2ccc(/C=C3/SC(=S)NC3=O)cc2)c2ccccc2n1Cc1ccc(Cl)cc1` was 0.51 µM; that for `CCOC(=O)c1c(-c2ccc(/C=C3/SC(=S)NC3=O)cc2)c2ccccc2n1Cc1ccccc1` was 0.91 µM; that for `COc1ccc(-c2coc3cc(OCC(=O)c4ccc(Cl)cc4)ccc3c2=O)cc1` was 6.3 µM. Same read-out and setting: with `OC[C@H]1NC[C@H](O)[C@@H](O)[C@@H]1O` [DUVOGLUSTAT] the figure was 426 µM. Same read-out and setting: with `OCCSc1nnc(COc2ccccc2)n1/N=C/c1ccc(O)cc1` the figure was 1.49 µM; with `Cc1ccc(-c2cc(C(F)(F)F)nn2-c2ccc(S(=O)(=O)NC(=O)c3ccc(C)c([N+](=O)[O-])c3)cc2)cc1`, 92.3 µM; with `Cc1cccc(-n2c(-c3ccc(Cl)cc3)cc(C(=O)Nc3ccncc3)c2C)c1`, 118 µM. As for `O=C(N/N=C/c1ccc(Cl)cc1)c1cc(-c2ccccc2)[nH]n1`, half-maximal inhibition (IC50) was put at 60.5 µM. `COc1cccc(/C=C/c2nc(-c3ccccc3)c3cc(Cl)ccc3n2)c1OS(=O)(=O)c1ccc([N+](=O)[O-])cc1` came in with an IC50 of 28 µM. Regarding `CCOP(=O)(OCC)C(Nc1ccc(C(F)(F)F)cc1I)c1cc(OC)c(O)c(OC)c1` (centres undefined), inhibition was half-maximal at 94.5 µM (IC50). On the same count and under the same terms, the value for `COc1cc(OC)c(Br)c(-c2nc3ccc(Br)cc3[nH]2)c1` was 8.15 µM; that for `O=C(CSc1nc2ccccc2c(=O)n1-c1cccc(Br)c1)c1ccc([N+](=O)[O-])cc1` was 85 µM. Same read-out and setting: the value for `OCCN1C[C@H](O)[C@@H](O)[C@H](O)[C@H]1CO` [MIGLITOL] was 0.39 µM; that for `CC(C)Cc1ccc(C(C)c2nnc(SC/C(=N\c3ccc(Cl)c(Cl)c3)c3ccccc3)o2)cc1` (centres undefined) was 3.05 µM. The compound `CCOC(=O)C1=C(C)NC2=C(C(=O)CC(C)(C)C2)C1c1cc(OC)c(OC)cc1Br` (centres undefined) registered an IC50 of 2.31 µM.
